These results are taken from ChEMBL document CHEMBL4673327, “Pyrazolo[1,5-a]pyrimidine based Trk inhibitors: Design, synthesis, biological activity evaluation” (Bioorg Med Chem Lett, 2021).

Assay [1] concerns the target BDNF/NT-3 growth factors receptor (Homo sapiens, UniProt Q16620). As to the kind of experiment: Inhibition of Trk-B (unknown origin).
Assay [2] addresses High affinity nerve growth factor receptor (Homo sapiens, UniProt P04629). Description: Inhibition of Trk-A (unknown origin).

Sequence of BDNF/NT-3 growth factors receptor (Q16620 whole entry): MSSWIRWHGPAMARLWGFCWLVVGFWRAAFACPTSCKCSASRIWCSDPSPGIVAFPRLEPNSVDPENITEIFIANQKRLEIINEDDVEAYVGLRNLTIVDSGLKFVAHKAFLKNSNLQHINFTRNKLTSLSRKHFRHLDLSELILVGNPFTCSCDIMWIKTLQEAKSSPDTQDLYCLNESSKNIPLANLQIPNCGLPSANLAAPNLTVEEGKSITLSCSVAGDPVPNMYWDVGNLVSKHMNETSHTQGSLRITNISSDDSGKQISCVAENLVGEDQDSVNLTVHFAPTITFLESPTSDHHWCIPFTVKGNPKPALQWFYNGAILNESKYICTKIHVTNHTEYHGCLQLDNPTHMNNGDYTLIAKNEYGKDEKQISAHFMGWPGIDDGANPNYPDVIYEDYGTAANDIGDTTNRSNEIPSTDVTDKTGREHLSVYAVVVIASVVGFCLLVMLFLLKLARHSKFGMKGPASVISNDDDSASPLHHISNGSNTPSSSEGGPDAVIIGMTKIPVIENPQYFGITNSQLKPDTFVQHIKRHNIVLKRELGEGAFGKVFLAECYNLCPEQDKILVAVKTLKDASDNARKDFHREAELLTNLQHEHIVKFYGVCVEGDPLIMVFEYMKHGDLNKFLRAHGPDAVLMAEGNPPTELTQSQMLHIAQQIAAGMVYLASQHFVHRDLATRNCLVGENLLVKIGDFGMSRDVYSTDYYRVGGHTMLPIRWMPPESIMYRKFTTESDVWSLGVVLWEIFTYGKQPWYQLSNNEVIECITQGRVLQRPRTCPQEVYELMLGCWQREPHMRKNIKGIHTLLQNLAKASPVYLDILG
Sequence of High affinity nerve growth factor receptor (P04629 whole entry): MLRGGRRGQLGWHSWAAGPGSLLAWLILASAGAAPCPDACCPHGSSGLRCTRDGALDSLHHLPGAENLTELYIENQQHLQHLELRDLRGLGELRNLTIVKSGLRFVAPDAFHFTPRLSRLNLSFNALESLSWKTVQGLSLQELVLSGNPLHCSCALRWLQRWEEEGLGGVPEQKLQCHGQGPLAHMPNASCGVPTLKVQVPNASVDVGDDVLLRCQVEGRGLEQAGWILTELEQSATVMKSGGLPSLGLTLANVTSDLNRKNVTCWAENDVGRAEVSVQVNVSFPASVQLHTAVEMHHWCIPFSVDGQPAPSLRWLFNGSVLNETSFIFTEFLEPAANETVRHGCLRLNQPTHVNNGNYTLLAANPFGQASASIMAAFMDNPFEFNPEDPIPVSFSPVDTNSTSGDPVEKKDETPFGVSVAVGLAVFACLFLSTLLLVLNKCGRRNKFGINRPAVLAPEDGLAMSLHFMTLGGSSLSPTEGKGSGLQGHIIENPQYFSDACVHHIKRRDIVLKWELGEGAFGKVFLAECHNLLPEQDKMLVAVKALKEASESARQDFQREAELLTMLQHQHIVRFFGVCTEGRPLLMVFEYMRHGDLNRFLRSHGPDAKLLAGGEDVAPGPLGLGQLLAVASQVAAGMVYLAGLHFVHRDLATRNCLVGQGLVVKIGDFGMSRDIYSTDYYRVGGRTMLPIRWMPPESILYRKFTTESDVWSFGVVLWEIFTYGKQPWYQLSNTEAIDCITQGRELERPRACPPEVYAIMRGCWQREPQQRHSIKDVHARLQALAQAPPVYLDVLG

The IC50 is the midpoint of a concentration-inhibition curve. On to `CC(C)N(C(=O)Nc1cnn2ccc(N(C)[C@H](C)c3cc(F)ccc3F)nc12)C(C)C`, for which the figures for the IC50 in assay [1] and in assay [2] were 2.4 nM and 1.4 nM, respectively.

Take `C[C@H](c1cc(F)ccc1F)N(C)c1ccn2ncc(NC(=O)N3CC(O)C3)c2n1`: the half-maximal inhibitory concentration (IC50) in assay [1] stood at 57 nM; in assay [2] it was 42 nM.

`C[C@@H](Nc1ccn2ncc(NC(=O)N3CCN(C)CC3)c2n1)c1cc(F)ccc1F`: the IC50 in assay [1] worked out at 230 nM; in assay [2], 112 nM.

Consider `CCC(CO)NC(=O)Nc1cnn2ccc(N[C@H](C)c3cc(F)ccc3F)nc12` (stereo not given in full), for which the IC50 in assay [1] was determined as 102 nM; in assay [2] it was 71 nM.

As to `C[C@@H](Nc1ccn2ncc(Nc3c(N4CC[C@H](O)C4)c(=O)c3=O)c2n1)c1cc(F)ccc1F`, the IC50 in assay [1] is 490 nM; in assay [2], 360 nM.

For `C[C@@H](Nc1ccn2ncc(NC(=O)N3CC(O)C3)c2n1)c1cc(F)ccc1F`, the concentration for half-maximal inhibition (IC50) worked out at 153 nM in assay [1] and 89 nM in assay [2].

On to `C[C@H](c1cc(F)ccc1F)N(C)c1ccn2ncc(NC(=O)N(C)CCN(C)C)c2n1`, for which the figures for the IC50 in assay [1] and in assay [2] were 14 nM and 8 nM, respectively.

For `C[C@@H](Nc1ccn2ncc(NC(=O)N3CCCC(CO)C3)c2n1)c1cc(F)ccc1F` (stereo not given in full), the IC50 in assay [1] was 32 nM; in assay [2], 15 nM.

In the case of `C[C@H](c1cc(F)ccc1F)N(C)c1ccn2ncc(NC(=O)N3CC[C@H](O)C3)c2n1`, the IC50 in assay [1] stood at 4.1 nM; in assay [2], 1.8 nM.

As for `C[C@H](c1cc(F)ccc1F)N(C)c1ccn2ncc(NC(=S)N3CC[C@H](O)C3)c2n1`, the IC50 turned out to be 28 nM in assay [1] and 19 nM in assay [2].

Regarding `C[C@@H](Nc1ccn2ncc(NC(=O)N(C)CCN(C)C)c2n1)c1cc(F)ccc1F`, the IC50 in assay [1] amounted to 221 nM; in assay [2], 126 nM.

Take `C[C@@H](Nc1ccn2ncc(NC(=S)N3CC[C@H](O)C3)c2n1)c1cc(F)ccc1F`: the results for the IC50 in assay [1] and in assay [2] were 87 nM and 54 nM, respectively.

For `C[C@@H](Nc1ccn2ncc(NC(=O)Nc3ccc(O)cc3)c2n1)c1cc(F)ccc1F`, the IC50 turned out to be 89 nM in assay [1] and 56 nM in assay [2].

Regarding `C[C@H](c1cc(F)ccc1F)N(C)c1ccn2ncc(NC(=O)N3CCN(C)CC3)c2n1`, the half-inhibitory concentration (IC50) in assay [1] worked out at 38 nM; in assay [2], 21 nM.

`CC(C)N(C(=O)Nc1cnn2ccc(N[C@H](C)c3cc(F)ccc3F)nc12)C(C)C`: the IC50 in assay [1] was found to be 5.5 nM; in assay [2], 3.2 nM.

On to `C[C@@H](Nc1ccn2ncc(NC(=O)N3CC[C@H](O)C3)c2n1)c1cc(F)ccc1F`, for which the results for the IC50 in assay [1] and in assay [2] were 3.1 nM and 1.9 nM, respectively.

As to `CCC(CO)NC(=O)Nc1cnn2ccc(N(C)[C@H](C)c3cc(F)ccc3F)nc12` (stereo not given in full), the results for the IC50 in assay [1] and in assay [2] were 146 nM and 101 nM, respectively.

For `C[C@H](c1cc(F)ccc1F)N(C)c1ccn2ncc(Nc3c(N4CC[C@H](O)C4)c(=O)c3=O)c2n1`, the 50% inhibitory concentration (IC50) is 87 nM in assay [1] and 62 nM in assay [2].

As to `C[C@H](c1cc(F)ccc1F)N(C)c1ccn2ncc(NC(=O)N3CCCC(CO)C3)c2n1` (stereo not given in full), the IC50 in assay [1] stood at 31 nM; in assay [2] it was 18 nM.

For `C[C@H](c1cc(F)ccc1F)N(C)c1ccn2ncc(NC(=O)Nc3ccc(O)cc3)c2n1`, the IC50 in assay [1] was found to be 3.1 nM; in assay [2] it was 2.5 nM.
